Test results taken from patent publication US20030017186A1, “Carboxylic acid fluorides as pesticides” (priority 1999, published 2003).

Tests used:
[1] = tested on: House longhorn beetle (Hylotrupes bajulus); assay: Fumigation test in glass vessel, house longhorn beetles; format: in vivo; conditions: HYLOBA beetles; Example 5; ACF 50.6/48.2/51.4 g/m^3, SF 47.4/44.6/41 g/m^3 (1st/2nd/3rd fumigation); 23/23/22° C.
Excerpt: (§1) b1) House longhorn beetle (Hylotrupes bajulus)=HYLOBA
(§2) The test organisms, separated by species, were placed into a glass vessel measuring 30 cm×30 cm×60 cm, which was sealed with a glass lid so as to be airtight. The adults and the larvae of the mealworm beetle (Tenebrio molitor) and the broad-horned flour beetle (Gnathocerus cornutus) were placed into small glass vessels approximately 5 cm in diameter, which were closed with a gauze lid and in which they could freely move about. The larvae of the rice weevil had burrowed into seeds of grain. The wood pest larvae were inserted into small blocks of wood measuring 5 cm×2.5 cm×2 cm. The openings were sealed with wads of cotton wool. Only one each of the larvae of the house longhorn beetle (Hylotrupes bajulus) was inserted into a piece of wood, while 6-8 larvae of the common furniture beetle (Anobium punctatum) were inserted into each piece of wood.
(§3) The respective gas was then introduced into the fumigation vessel through a gas line from a gas tank that contained the specified amount of gas. After a defined time period, the fumigation vessel was purged with compressed air. The discharged gas was purified by an attached gas scrubber.
(§4) The beetles were observed until they died. This point was recorded for each species. The larvae of the wood pests as well as the larvae of the rice weevil (Sitophilus oryzae) had to be picked out of the wood or the grain to check their condition. If any of the animals were still alive, the wooden test blocks remaining in the vessel were fumigated again and were reexamined after the corresponding time span had elapsed. The same number of animals in the untreated control was also checked at each point.
(§5) The vitality of the animals was checked at certain time intervals. The beetles could be observed through the fumigation vessel. This was also true for the larvae of the mealworm beetle and the broad-horned flour beetle. The wooden test blocks of the wood pest larvae were opened with hammer and chisel. Tweezers were used to pull the rice weevil larvae out of the grain seeds. The exact time intervals and the number of the evaluated pests were documented in the test results.

[2] = tested on: Rice weevil (Sitophilus oryzae); assay: Fumigation test in glass vessel, rice weevils; format: in vivo; conditions: SITTOR beetles; Example 5; ACF 50.6/48.2/51.4 g/m^3, SF 47.4/44.6/41 g/m^3 (1st/2nd/3rd fumigation); 23/23/22° C.
Excerpt: (§6) a2) Rice weevil (Sitophilus oryzae)=SITTOR
as §2, §3, §4, §5

[3] = tested on: Broad-horned flour beetle (Gnathocerus cornutus); assay: Fumigation test in glass vessel, broad-horned flour beetles; format: in vivo; conditions: GNATCO beetles; Example 5; ACF 50.6/48.2/51.4 g/m^3, SF 47.4/44.6/41 g/m^3 (1st/2nd/3rd fumigation); 23/23/22° C.
Excerpt: (§7) a3) Broad-horned flour beetle (Gnathocerus cornutus)=GNATCO
as §2, §3, §4, §5

[4] = tested on: Saw-toothed grain beetle (Oryzaephilus surinamensis); assay: Fumigation test in glass vessel, saw-toothed grain beetles; format: in vivo; conditions: ORYZSA beetles; Example 5; ACF 50.6/48.2/51.4 g/m^3, SF 47.4/44.6/41 g/m^3 (1st/2nd/3rd fumigation); 23/23/22° C.
Excerpt: a4) Saw-toothed grain beetle (Oryzaephilus surinamensis)=ORYZSA
as §2, §3, §4, §5

termites = assay: Termite control fumigation test (overall statements); format: in vivo, Cryptotermes brevis, Incisitermes tabogae; conditions: Example 6; compared with those treated with acetyl fluoride
Excerpt: (§8) c) American drywood termites (Cryptotermes brevis)=CRYPBR, and Incisitermes tabogae=INCITA
as §2, §3, §4
The vitality of the animals was checked at certain time intervals. The beetles could be observed through the fumigation vessel. This was also true for the larvae of the mealworm beetle and the broad-horned flour beetle. […] The exact time intervals and the number of the evaluated pests were documented in the test results.

[5] = tested on: Common furniture beetle (Anobium punctatum); assay: Fumigation test in glass vessel, common furniture beetles; format: in vivo; conditions: ANOBPU beetles; Example 5; ACF 50.6/48.2/51.4 g/m^3, SF 47.4/44.6/41 g/m^3 (1st/2nd/3rd fumigation); 23/23/22° C.
Excerpt: (§9) b2) Common furniture beetle (Anobium punctatum)=[…]
as §2, §3, §4, §5

Incisitermes tabogae = assay: Termite control fumigation test, Incisitermes tabogae; format: in vivo; conditions: Example 6
Excerpt: as §8, §2, §3, §4, §5

[6] = tested on: Mealworm beetle (Tenebrio molitor) larvae; assay: Fumigation test in glass vessel, mealworm beetle larvae; format: in vivo; conditions: TENEMO larvae; Example 5; ACF 50.6/48.2/51.4 g/m^3, SF 47.4/44.6/41 g/m^3 (1st/2nd/3rd fumigation); 23/23/22° C.
Excerpt: (§10) a1) Mealworm beetle (Tenebrio molitor)=TENEMO
as §2, §3, §4, §5

wood and storage pests = assay: Fumigation test, wood and storage pests (overall statements); format: in vivo; conditions: Example 5; wood and storage pests
Excerpt: as §2, §3, §4, §5

[7] = tested on: Common furniture beetle (Anobium punctatum) larvae; assay: Fumigation test in glass vessel, common furniture beetle larvae in wood blocks; format: in vivo; conditions: ANOBPU larvae in wood blocks; Example 5; ACF 50.6/48.2/51.4 g/m^3, SF 47.4/44.6/41 g/m^3 (1st/2nd/3rd fumigation); 23/23/22° C.
Excerpt: as §9, §2, §3, §4, §5

[8] = tested on: American drywood termites (Cryptotermes brevis); assay: Termite control fumigation test, Cryptotermes brevis; format: in vivo; conditions: Example 6
Excerpt: as §8, §2, §3, §4, §5

[9] = tested on: House longhorn beetle (Hylotrupes bajulus) larvae; assay: Fumigation test in glass vessel, house longhorn beetle larvae in wood blocks; format: in vivo; conditions: HYLOBA larvae in wood blocks; Example 5; ACF 50.6/48.2/51.4 g/m^3, SF 47.4/44.6/41 g/m^3 (1st/2nd/3rd fumigation); 23/23/22° C.
Excerpt: as §1, §2, §3, §4, §5

[10] = tested on: Mealworm beetle (Tenebrio molitor); assay: Fumigation test in glass vessel, mealworm beetles; format: in vivo; conditions: TENEMO beetles; Example 5; ACF 50.6/48.2/51.4 g/m^3, SF 47.4/44.6/41 g/m^3 (1st/2nd/3rd fumigation); 23/23/22° C.
Excerpt: as §10, §2, §3, §4, §5

[11] = tested on: Rice weevil (Sitophilus oryzae) larvae; assay: Fumigation test in glass vessel, rice weevil larvae in grain seeds; format: in vivo; conditions: SITTOR larvae in grain seeds; Example 5; ACF 50.6/48.2/51.4 g/m^3, SF 47.4/44.6/41 g/m^3 (1st/2nd/3rd fumigation); 23/23/22° C.
Excerpt: as §6, §2, §3, §4, §5

[12] = tested on: Broad-horned flour beetle (Gnathocerus cornutus) larvae; assay: Fumigation test in glass vessel, broad-horned flour beetle larvae; format: in vivo; conditions: GNATCO larvae; Example 5; ACF 50.6/48.2/51.4 g/m^3, SF 47.4/44.6/41 g/m^3 (1st/2nd/3rd fumigation); 23/23/22° C.
Excerpt: as §7, §2, §3, §4, §5

[13] = INCITA termites, ACF 50.0/53.8 g/m^3, SF 47.8/44.8 g/m^3 (1st/2nd fumigation), 23.7/24° C.
[14] = CRYPBR termites, ACF 50.0/53.8 g/m^3, SF 47.8/44.8 g/m^3 (1st/2nd fumigation), 23.7/24° C.

O=S(=O)(F)F [SF, sulfuryl fluoride, reference compound]
Number alive, 30 min. after Start of Fumigation [1]: 4
Number alive, 1 hr. after Start of Fumigation [1]: 2
Number alive, 3 hrs. after Start of Fumigation [1]: 0
Number dead, 30 min. after Start of Fumigation [1]: 0
Number dead, 1 hr. after Start of Fumigation [1]: 2
Number dead, 3 hrs. after Start of Fumigation [1]: 4
Number alive, 30 min. after Start of Fumigation [2]: 0
Number dead, 30 min. after Start of Fumigation [2]: 15
Number alive, 30 min. after Start of Fumigation [3]: 0
Number dead, 30 min. after Start of Fumigation [3]: 15
Number alive, 30 min. after Start of Fumigation [4]: 0
Number dead, 30 min. after Start of Fumigation [4]: 15
Liveliness of termites after 1 hour of fumigation (termites): more lively overall
Number alive, 30 min. after Start of Fumigation [5]: 0
Number dead, 30 min. after Start of Fumigation [5]: 6
Condition of Incisitermes on reexamination after 24-hour observation period (Incisitermes tabogae; animals fumigated 1 hour, then 24-hour observation): dead
Number alive, 30 min. after 1st Fumigation (Incisitermes tabogae; [13]): 90
Number alive, 1 hr. after 1st Fumigation (Incisitermes tabogae; [13]): 30
Number alive, 3 hrs. after 1st Fumigation (Incisitermes tabogae; [13]): 0
Number dead, 30 min. after 1st Fumigation (Incisitermes tabogae; [13]): 0
Number dead, 1 hr. after 1st Fumigation (Incisitermes tabogae; [13]): 0
Number dead, 3 hrs. after 1st Fumigation (Incisitermes tabogae; [13]): 60
Number alive, 30 min. after Start of Fumigation [6]: 1
Number alive, 1 hr. after Start of Fumigation [6]: 1
Number alive, 3 hrs. after Start of Fumigation [6]: 0
Number dead, 30 min. after Start of Fumigation [6]: 4
Number dead, 1 hr. after Start of Fumigation [6]: 4
Number dead, 3 hrs. after Start of Fumigation [6]: 5
Speed of action compared with acetyl fluoride (wood and storage pests): clearly acts more slowly than acetyl fluoride
Number alive, 1 hr. after Start of Fumigation [7]: 3
Number alive, 3 hrs. after Start of Fumigation [7]: 4
Number alive, 6 hrs after Start of Fumigation [7]: 0
Number dead, 1 hr. after Start of Fumigation [7]: 0
Number dead, 3 hrs. after Start of Fumigation [7]: 0
Number dead, 6 hrs after Start of Fumigation [7]: 8
Number alive, 30 min. after 1st Fumigation [8, 14]: 180
Number alive, 1 hr. after 1st Fumigation [8, 14]: 60
Number alive, 3 hrs. after 1st Fumigation [8, 14]: 0
Number dead, 30 min. after 1st Fumigation [8, 14]: 0
Number dead, 1 hr. after 1st Fumigation [8, 14]: 0
Number dead, 3 hrs. after 1st Fumigation [8, 14]: 120
Number of Cryptotermes still alive on reexamination after 24-hour observation period ([8]; out of 60 animals fumigated 1 hour, then 24-hour observation): 7
Number alive, 1 hr. after Start of Fumigation [9]: 3
Number alive, 3 hrs. after Start of Fumigation [9]: 0
Number alive, 6 hrs after Start of Fumigation [9]: 0
Number dead, 1 hr. after Start of Fumigation [9]: 1
Number dead, 3 hrs. after Start of Fumigation [9]: 4
Number dead, 6 hrs after Start of Fumigation [9]: 6
Number alive, 30 min. after Start of Fumigation [10]: 0
Number dead, 30 min. after Start of Fumigation [10]: 10
Number alive, 1 hr. after Start of Fumigation [11]: 0
Number dead, 1 hr. after Start of Fumigation [11]: 15
Number alive, 30 min. after Start of Fumigation [12]: 15
Number alive, 1 hr. after Start of Fumigation [12]: 0
Number dead, 30 min. after Start of Fumigation [12]: 0
Number dead, 1 hr. after Start of Fumigation [12]: 15
